Measurements: patent publication US4568689A, “Pharmaceutical preparation for the treatment of hypertensive disease and myocardial infarction” (priority 1983, dated 1986)

How the values were obtained:
[1] = test system: arterial pressure of rats with spontaneous hypertension; test: hypotensive effect, intraperitoneal, spontaneously hypertensive rats; type: in vivo
Description: The study of the hypotensive effect was carried out in experiments on spontaneously hypertensive male rats of the Akamoto-Aoki line aged 20-25 weeks. The prior art preparation-nifedipine was used for the purpose of comparison. The measurement of the arterial pressure was effected on the tail vein of the rats by the indirect method. The animals were divided into groups (10 in each) and trained for two weeks with the view to ensure their adaptation to the unit for the measurement of the arterial pressure. The level of the arterial pressure prior to administration of the test preparations was measured three times: two days, one day and directly prior to administration of the test preparations. The preparation was administered in the form of a 2.5% aqueous solution, nifedipine--in the form of a 2.5% suspension in Twin-80 intraperitoneally. […]

[2] = side effects or contraindications on administration
[3] = test system: neoepinephrine model of infarction (focal necrosis) of myocardium in rats; test: survival of rats with the neoepinephrine model of infarction; type: in vivo, rats of the Wistar line; details: 25 mg/kg subcutaneously, 7 days
Description: The study of the effect produced by the preparation according to the present invention on survival of animals with a neoepinephrine model of infarction was effected in comparison with the prior art preparations--obzidan and finoptin.
The formation of a neoepinephrine model of infarction (focal necrosis) of myocardium in rats was effected by way of an every-day subcutaneous administration of a 0.1% solution of neoepinephrine in the dose of 3 mg/kg for 7 days to rats of the Wistar line with a mass of 160-200 g. The test preparations were subcutaneously administered to the rats in the form of a 1.25% aqueous solution in the dose of 25 mg/kg 0.5 hour after injection of neoepinephrine also for 7 days.

[4] = test system: hemodynamic effects of acetylcholine, neoepinephrine, noradrenaline, histamine and angiotensin; test: influence on hemodynamic effects of acetylcholine, noradrenaline, neoepinephrine, angiotensin and histamine in narcotized cats; type: in vivo
Description: (§1) The effect of the pharmaceutical preparation according to the present invention on the arterial pressure and vegetative responses was studied in acute experiments on cats with a mass of 2.8-4.0 kg narcotized with α-glucochloralose (90 mg/kg) and urethane (100 mg/kg, intraperitoneally). The breathing, arterial pressure in the common carotid artery and electrocardiogram of the second standard lead were recorded.
(§2) The influence of the preparation according to the present invention on hemodynamic effects of acetylcholine (0.1 μg/kg) neoepinephrine (0.2 μg/kg), noradrenaline (1 μg/kg), histamine (1.5 μg/kg) and angiotensin (0.1 μg/kg) was also studied. The preparation of this invention was intravenously administered in the form of a 2.5% solution in doses of 0.5 to 10 mg/kg. The peripheral part of the vagus nerve was irritated by supromaximum pulses with the frequency of 30 Hz and duration of 0.1 ms.

white mongrel mice = test: in vivo; details: mouse, ip
Description: (§3) Acute toxicity measurements were carried out in experiments on white mongrel mice upon intraperitoneal administration.

in vivo = details: mouse, ip
Description: as §3

[5] = test system: arterial pressure and vegetative responses in narcotized animals; test: arterial pressure, breathing and electrocardiogram in narcotized cats, intravenous; type: in vivo
Description: as §1, §2

[6] = test system: arterial pressure of spontaneously hypertensive rats; test: effect of the oral form on arterial pressure, spontaneously hypertensive rats; type: in vivo
[7] = test system: arterial pressure of spontaneously hypertensive rats; test: as above; type: in vivo; remark: listed apart in the source
Description: Also studied was the efficiency of the oral form of the preparation according to the present invention. […] The efficiency was studied within the range of doses from 50 to 100 mg/kg.

[8] = 25 mg/kg intraperitoneally, 30 minutes
[9] = 25 mg/kg intraperitoneally, 1 hour
[10] = 25 mg/kg intraperitoneally, 2 hours
[11] = 25 mg/kg intraperitoneally, 4 hours
[12] = 50 mg/kg intraperitoneal, 30 minutes
[13] = 50 mg/kg intraperitoneally, 30 minutes
[14] = 50 mg/kg intraperitoneally, 1 hour
[15] = 50 mg/kg intraperitoneally, 2 hours
[16] = 50 mg/kg intraperitoneally, 4 hours
[17] = 50 mg/kg intraperitoneally, 24 hours
[18] = 24 hours after a single-time administration

SMILES: C[N+]1(C)CC(CC(=O)[O-])C(=O)N1 (stereo not drawn) [Preparation of this invention, (1,1-dimethyl-3-oxopyrazolin-1-io-4-yl)acetate]
- Variation of arterial pressure, diastolic [1, 8]: -1 % of the initial
- Variation of arterial pressure, systolic [1, 8]: -3 % of the initial
- Variation of arterial pressure, diastolic [1, 9]: -7 % of the initial
- Variation of arterial pressure, systolic [1, 9]: -5 % of the initial
- Variation of arterial pressure, diastolic [1, 10]: -19 % of the initial
- Variation of arterial pressure, systolic [1, 10]: -3 % of the initial
- Variation of arterial pressure, diastolic [1, 11]: -18 % of the initial
- Variation of arterial pressure, systolic [1, 11]: -7 % of the initial
- reduction of diastolic pressure [1, 12]: 23.5%
- reduction of systolic pressure [1, 12]: 17.6%
- Variation of arterial pressure, diastolic [1, 13]: -23 % of the initial
- Variation of arterial pressure, systolic [1, 13]: -17 % of the initial
- Variation of arterial pressure, diastolic [1, 14]: -28 % of the initial
- Variation of arterial pressure, systolic [1, 14]: -12 % of the initial
- Variation of arterial pressure, diastolic [1, 15]: -26 % of the initial
- Variation of arterial pressure, systolic [1, 15]: -18 % of the initial
- Variation of arterial pressure, diastolic [1, 16]: -41 % of the initial
- Variation of arterial pressure, systolic [1, 16]: -21 % of the initial
- Variation of arterial pressure, diastolic [1, 17]: -19 % of the initial
- Variation of arterial pressure, systolic [1, 17]: -17 % of the initial
- reduction of diastolic pressure [1, 18]: 28.5%
- reduction of systolic pressure [1, 18]: 18.8%
- difference between systolic and diastolic pressures ([1]; see Table 1): increases the difference between systolic and diastolic pressures
- side effects or contraindications [2]: No side effects or contraindications
- Percentage of survival ([3]; after 19 days): 92%
- Number of survived animals after 19 days ([3]; groups initially 12 animals): 11
- Hemodynamic effect, Neoepinephrine ([4]; 10 mg/kg intravenously, neoepinephrine 0.2 μg/kg): -35%
- Hemodynamic effect, Noradrenaline ([4]; 0.5-3.0 mg/kg intravenously, noradrenaline 1 μg/kg): -10%
- blocking of α- and β-receptors and the cholinergic system ([4]; higher doses (10 mg/kg)): substantially blocks both α- and β-receptors, as well as the cholinergic system
- direct influence on effects of angiotensin and histamine ([4]; higher doses (10 mg/kg)): does not provide any direct influence on effects of angiotensin and histamine
- LD50 (white mongrel mice): 2,239 (1,279-3,917) mg/kg
- LD50 (in vivo): 2240 mg/kg
- Variation of arterial pressure ([5]; 5 mg/kg intravenously): -16%
- peripheral resistance ([5]; in vivo): reduction of peripheral resistance
- effect on breathing and electrocardiogram ([5]; intravenously, 0.5 to 10 mg/kg): does not substantially affect the breathing and electrocardiogram of the animals
- Variation of arterial pressure, diastolic ([6]; 50 mg/kg per os, 30 minutes): -10 % of the initial
- Variation of arterial pressure, systolic ([6]; 50 mg/kg per os, 30 minutes): -3 % of the initial
- Variation of arterial pressure, diastolic ([6]; 50 mg/kg per os, 1 hour): +2 % of the initial
- Variation of arterial pressure, diastolic ([6]; 50 mg/kg per os, 2 hours): -8 % of the initial
- Variation of arterial pressure, systolic ([6]; 50 mg/kg per os, 2 hours): -5 % of the initial
- Variation of arterial pressure, diastolic ([6]; 50 mg/kg per os, 4 hours): -3 % of the initial
- Variation of arterial pressure, diastolic ([6]; 50 mg/kg per os, 24 hours): -2 % of the initial
- Variation of arterial pressure, systolic ([6]; 50 mg/kg per os, 24 hours): -7 % of the initial
- Variation of arterial pressure, diastolic ([6]; 75 mg/kg per os, 30 minutes): -12 % of the initial
- Variation of arterial pressure, systolic ([6]; 75 mg/kg per os, 30 minutes): -16 % of the initial
- Variation of arterial pressure, systolic ([6]; 75 mg/kg per os, 2 hours): -18 % of the initial
- Variation of arterial pressure, diastolic ([6]; 75 mg/kg per os, 4 hours): -11 % of the initial
- Variation of arterial pressure, systolic ([6]; 75 mg/kg per os, 4 hours): -8 % of the initial
- Variation of arterial pressure, diastolic ([6]; 75 mg/kg per os, 24 hours): -22 % of the initial
- Variation of arterial pressure, systolic ([6]; 75 mg/kg per os, 24 hours): -20 % of the initial
- stable reduction of the arterial pressure ([6]; 75 mg/kg per os, 24 hours after administration): about 20%
- Variation of arterial pressure, diastolic ([6]; 100 mg/kg per os, 30 minutes): -11 % of the initial
- Variation of arterial pressure, systolic ([6]; 100 mg/kg per os, 30 minutes): -13 % of the initial
- Variation of arterial pressure, diastolic ([6]; 100 mg/kg per os, 2 hours): -7 % of the initial
- Variation of arterial pressure, systolic ([6]; 100 mg/kg per os, 2 hours): -8 % of the initial
- Variation of arterial pressure, diastolic ([6]; 100 mg/kg per os, 4 hours): -13 % of the initial
- Variation of arterial pressure, systolic ([6]; 100 mg/kg per os, 4 hours): -13 % of the initial
- Variation of arterial pressure, systolic ([6]; 100 mg/kg per os, 24 hours): -12 % of the initial
- Variation of arterial pressure, systolic ([7]; 50 mg/kg per os, 4 hours): -3 % of the initial
- Variation of arterial pressure, diastolic ([7]; 75 mg/kg per os, 1 hour): -17 % of the initial
- Variation of arterial pressure, systolic ([7]; 75 mg/kg per os, 1 hour): -10 % of the initial
- Variation of arterial pressure, diastolic ([7]; 75 mg/kg per os, 2 hours): -18 % of the initial
- superiority in duration of action over nifedipine ([7]; 75 mg/kg per os, vs nifedipine): at least 3 times
- Variation of arterial pressure, diastolic ([7]; 100 mg/kg per os, 1 hour): -8 % of the initial
- Variation of arterial pressure, systolic ([7]; 100 mg/kg per os, 1 hour): -7 % of the initial
- Variation of arterial pressure, diastolic ([7]; 100 mg/kg per os, 24 hours): -3 % of the initial
